The term pIC50 denotes the negative decadic logarithm of the IC50, by convention in mol/L. As a reminder, the AUC(0-inf) is total exposure, with the tail of the curve extrapolated. Lower therefore signals less exposure. The term AUC(0-t) denotes the area under the concentration-time curve up to a stated or last time point. A high value points to more exposure. As a reminder, the Cmax is the peak of the concentration-time curve. One may read the half-life as the time needed for the level to fall by half in the phase considered. By inhibition is commonly meant how much of the control response was suppressed. As a reminder, the Tmax is the time at which the peak concentration occurs. Broadly, the viability is a per cent measure of how many cells are alive, often set against a control. Higher therefore signals less harm to the cells.

Consider nine compounds from patent US9637516B2, “Betulinic acid proline derivatives as HIV inhibitors” (HETERO RESEARCH FOUNDATION, priority 2012, dated 2017).

For one data set, the system named is HIV-1 strain 92HT599. Kind of data set: Antiviral activity: p24 estimation in MT2 cells infected with HIV-1 strain 92HT599. Format: cell-based. To be noted: for pIC50: Human immunodeficiency virus 1, HIV-1 92HT599, p24; for inhibition at 0.1 µM: Human immunodeficiency virus 1, 100 nM; for inhibition at 0.1 µM / inhibition at 1 µM: HIV-1 92HT599, p24, ~96 hours; for inhibition at 1 µM: Human immunodeficiency virus 1, 1000 nM. The protocol: MT2 cells were infected with HIV-1 strain 92HT599 (10 TCID 50/30000 cells). The infected cells were plated at the concentration of ˜30 000 cells per well in 96 well plate. Test compound was added to the micro plate in defined format with the final concentration of DMSO (vehicle) is not more than 1%. Incubation was carried out in CO2 incubator for ˜96 hours for viral infection. At the end of incubation period an aliquot from each well was taken for p24 estimation. The quantitation of p24 is an index for antiviral activity of the compound. Percent inhibition was calculated with reference to control values (vehicle controls). p-24 estimation was carried out using Advance biosciences kit as per the procedure detailed by supplier.

Data set [1] in a line: Single dose oral pharmacokinetic study. Format: in vivo, mice. The conditions noted are these: mouse, plasma. How it is done:
The test item was administered through oral route to animals (rat/mice) at 30 mg/kg dose in a suitable vehicle at 10 ml/kg dose volume. Blood samples (˜50 uL at each time point) were collected from retro-orbital plexus using K3 EDTA as anticoagulant in eppendorf tubes at defined time intervals under light ether anesthesia. The samples were centrifuged at 3500×g to separate plasma and stored at −80° C. until analysis.
Sample analysis: Test samples were analyzed using LC-MS-MS after developing fit-for-purpose method for each of test compound.

A short description of the next data set: in vitro. The conditions noted are these: human, Cytotoxicity % viability. Format: cell-based. How it is done: (§1) For cyto-toxicity assay the same amount of MT2 cells as in antiviral assay without virus was added to the 96 well plates. The cyto-toxicity was measured using MTT reagent in parallel with p24 estimation. The percent viability is calculated in comparison with vehicle control.

A further data set relates to MT2 cells. Kind of data set: in vitro. To be noted: human, 1 µM. Format: cell-based. The protocol: as §1
[2] abbreviates: Mice oral PK @30 mg/kg (Table 4).
Where [3] appears, read: Mice oral PK @30 mg/kg (Table 3).

pIC50: −log10 of the molar value.

With `CC1(C)C(C(=O)O)CC1C(=O)O[C@H]1CC[C@]2(C)[C@H]3CC[C@@H]4[C@H]5[C@H](C6(C)CC6)CC[C@]5(C(=O)N5CCC[C@H]5c5ncc(-c6ccccc6)[nH]5)CC[C@@]4(C)[C@]3(C)CC[C@H]2C1(C)C` (stereo partly drawn) [Compound 43, 2,2-dimethyl-3-((((1R,3aS,5aR,5bR,7aR,9S,11aR,11bR,13aR,13bR)-5a,5b,8,8,11a-pentamethyl-1-(1-methylcyclopropyl)-3a-((S)-2-(5-phenyl-1H-imidazol-2-yl)pyrrolidine-1-carbonyl)icosahydro-1H-cyclopenta[a]chrysen-9-yl)oxy)carbonyl)cyclobutane-1-carboxylic acid], the pIC50 in the data set with HIV-1 strain 92HT599 is 8.36. Also, in data set [1] (setting [2]), the AUC(0-inf) amounted to 776 µg·h/mL, the AUC(0-t) came out at 294 µg·h/mL, the Cmax was found to be 13900 ng/mL and the half-life is 55.6 h.
`C=C(C)[C@@H]1CC[C@]2(C(=O)N3CCC[C@H]3c3ncc(-c4ccc(F)cc4)[nH]3)CC[C@]3(C)[C@H](CC[C@@H]4[C@@]5(C)CC[C@H](OC(=O)CC(C)(C)C(=O)O)C(C)(C)[C@@H]5CC[C@]43C)[C@@H]12` [Compound 34, 4-(((1R,3aS,5aR,5bR,7aR,9S,11aR,11bR,13aR,13bR)-3a-((S)-2-(5-(4-fluorophenyl)-1H-imidazol-2-yl)pyrrolidine-1-carbonyl)-5a,5b,8,8,11a-pentamethyl-1-(prop-1-en-2-yl)icosahydro-1H-cyclopenta[a]chrysen-9-yl)oxy)-2,2-dimethyl-4-oxobutanoic acid]: the negative logarithm of the IC50 (pIC50) in the data set on HIV-1 strain 92HT599 is 7.77. In data set [1] (setting [2]), this compound showed a total exposure AUC(0-inf) of 263 µg·h/mL, an AUC(0-t) of 224 µg·h/mL, a Cmax of 13300 ng/mL and a half-life of 16.1 h.
Take `CC(C)(CC(=O)O[C@H]1CC[C@]2(C)[C@H]3CC[C@@H]4[C@H]5[C@H](C6(C)CC6)CC[C@]5(C(=O)N5CCC[C@H]5c5ncc(-c6ccccc6)[nH]5)CC[C@@]4(C)[C@]3(C)CC[C@H]2C1(C)C)C(=O)O` [Compound 12, 2,2-dimethyl-4-oxo-4-((1R,3aS,5aR,5bR,7aR,9S,11aR,11bR,13aR,13bR)-5a,5b,8,8,11a-pentamethyl-1-(1-methylcyclopropyl)-3a-((S)-2-(5-phenyl-1H-imidazol-2-yl)pyrrolidine-1-carbonyl)icosahydro-1H-cyclopenta[a]chrysen-9-yloxy)butanoic acid]: in the data set with HIV-1 strain 92HT599, the inhibition at 0.1 µM was 100%, the inhibition at 1 µM is 100% and the pIC50 was 8.34. In addition, in data set [1] (setting [3]), the area under the curve AUC(0-t) was found to be 69.3 µg·h/mL, the Cmax is 7260 ng/mL and the Tmax came out at 3 h. Besides, the viability at 1 µM in the data set “in vitro” worked out at 85%.
As to `CC(C)(CC(=O)O[C@H]1CC[C@]2(C)[C@H]3CC[C@@H]4[C@H]5[C@H](C6(C)CC6)CC[C@]5(C(=O)N5CCC[C@@H]5c5nc(-c6ccccc6)no5)CC[C@@]4(C)[C@]3(C)CC[C@H]2C1(C)C)C(=O)O` [Compound 5, 2,2-dimethyl-4-oxo-4-((1R,3aS,5aR,5bR,7aR,9S,11aR,11bR,13aR,13bR)-5a,5b,8,8,11a-pentamethyl-1-(1-methylcyclopropyl)-3a-((R)-2-(3-phenyl-1,2,4-oxadiazol-5-yl)pyrrolidine-1-carbonyl)icosahydro-1H-cyclopenta[a]chrysen-9-yloxy)butanoic acid], in the data set with HIV-1 strain 92HT599, the inhibition at 0.1 µM was 64% and the inhibition at 1 µM is 99%. The Cytotoxicity % viability with MT2 cells came to 100%. This compound came in with a viability at 1 µM in “in vitro” of 91%.
In the case of `C=C(C)[C@@H]1CC[C@]2(C(=O)N3CCC[C@@H]3c3nc(-c4cccnc4)no3)CC[C@]3(C)[C@H](CC[C@@H]4[C@@]5(C)CC[C@H](OC(=O)CC(C)(C)CC(=O)O)C(C)(C)[C@@H]5CC[C@]43C)[C@@H]12` [Compound 4, 3,3-dimethyl-5-oxo-5-((1R,3aS,5aR,5bR,7aR,9S,11aR,11bR,13aR,13bR)-5a,5b,8,8,11a-pentamethyl-1-(prop-1-en-2-yl)-3a-((R)-2-(3-(pyridin-3-yl)-1,2,4-oxadiazol-5-yl)pyrrolidine-1-carbonyl)icosahydro-1H-cyclopenta[a]chrysen-9-yloxy)pentanoic acid], in the data set on HIV-1 strain 92HT599, the inhibition at 0.1 µM is 84%, the inhibition at 1 µM was 96% and the pIC50 is 8.06. Also, in data set [1] (setting [3]), the exposure AUC(0-t) is 36.9 µg·h/mL, the Cmax came out at 4830 ng/mL and the Tmax is 2.5 h.
Take `CC(C)(CC(=O)O[C@H]1CC[C@]2(C)[C@H]3CC[C@@H]4[C@H]5[C@H](C6(C)CC6)CC[C@]5(C(=O)N5CCC[C@H]5c5ncc(-c6ccc(F)cc6)[nH]5)CC[C@@]4(C)[C@]3(C)CC[C@H]2C1(C)C)C(=O)O` [Compound 33, 4-(((1R,3aS,5aR,5bR,7aR,9S,11aR,11bR,13aR,13bR)-3a-((S)-2-(5-(4-fluorophenyl)-1H-imidazol-2-yl)pyrrolidine-1-carbonyl)-5a,5b,8,8,11a-pentamethyl-1-(1-methylcyclopropyl)icosahydro-1H-cyclopenta[a]chrysen-9-yl)oxy)-2,2-dimethyl-4-oxobutanoic acid]: the negative logarithm of the IC50 (pIC50) with HIV-1 strain 92HT599 is 8.02. In data set [1] (setting [2]), this compound had an AUC(0-inf) of 152 µg·h/mL, an AUC(0-t) of 88.7 µg·h/mL, a peak concentration (Cmax) of 4400 ng/mL and a half-life of 32.1 h.
In the case of `CC(C)(CC(=O)O)CC(=O)O[C@H]1CC[C@]2(C)[C@H]3CC[C@@H]4[C@H]5[C@H](C6(C)CC6)CC[C@]5(C(=O)N5CCCC5c5ncc(-c6cccnc6)[nH]5)CC[C@@]4(C)[C@]3(C)CC[C@H]2C1(C)C` (some centres unmarked) [Compound 31], in the data set on HIV-1 strain 92HT599, the pIC50 was 8.79. Further, in data set [1] (setting [2]), the AUC(0-inf) came to 145 µg·h/mL, the exposure AUC(0-t) was determined as 136 µg·h/mL, the highest level (Cmax) was 9300 ng/mL and the half-life was 10.9 h.
On the same counts, the results for `CC(C)(CC(=O)O[C@H]1CC[C@]2(C)[C@H]3CC[C@@H]4[C@H]5[C@H](C6(C)CC6)CC[C@]5(C(=O)N5CCC[C@H]5c5ncc(-c6cccs6)[nH]5)CC[C@@]4(C)[C@]3(C)CC[C@H]2C1(C)C)C(=O)O` [Compound 38] are 8.08, 119 µg·h/mL, 110 µg·h/mL, 7000 ng/mL and 12.3 h.
On the same counts, the results for `C=C(C)[C@@H]1CC[C@]2(C(=O)N3CCC[C@H]3c3ncc(-c4ccc(F)cc4)[nH]3)CC[C@]3(C)[C@H](CC[C@@H]4[C@@]5(C)CC[C@H](OC(=O)C6CC(C(=O)O)C6(C)C)C(C)(C)[C@@H]5CC[C@]43C)[C@@H]12` (stereo partly drawn) [Compound 35, 3-((((1R,3aS,5aR,5bR,7aR,9S,11aR,11bR,13aR,13bR)-3a-((S)-2-(5-(4-fluorophenyl)-1H-imidazol-2-yl)pyrrolidine-1-carbonyl)-5a,5b,8,8,11a-pentamethyl-1-(prop-1-en-2-yl)icosahydro-1H-cyclopenta[a]chrysen-9-yl)oxy)carbonyl)-2,2-dimethylcyclobutane-1-carboxylic acid] are 7.13, 655 µg·h/mL, 410 µg·h/mL, 16000 ng/mL and 34.2 h.
